Assay results from ChEMBL document CHEMBL4004849, “Tetrazolylmethyl quinolines: Design, docking studies, synthesis, anticancer and antifungal analyses” (2017).
Converted amounts (≈) assume the structure as drawn. The source made the active and inactive calls. The rule behind the calls is not given here.

Columns and labels:
Assay type in all cases: functional
[1] = system: U-251; assay: Growth inhibition of human U251 cells at 10^-5 M incubated for 48 hrs by sulforhodamine B assay relative to control
[2] = system: HCC 2998; assay: Growth inhibition of human HCC2998 cells at 10^-5 M incubated for 48 hrs by sulforhodamine B assay relative to control
[3] = system: IGROV-1; assay: Growth inhibition of human IGROV1 cells at 10^-5 M incubated for 48 hrs by sulforhodamine B assay relative to control
[4] = system: SF-539; assay: Growth inhibition of human SF539 cells at 10^-5 M incubated for 48 hrs by sulforhodamine B assay relative to control
[5] = system: SK-MEL-5; assay: Growth inhibition of human SK-MEL-5 cells at 10^-5 M incubated for 48 hrs by sulforhodamine B assay relative to control
[6] = system: M14; assay: Growth inhibition of human M14 cells at 10^-5 M incubated for 48 hrs by sulforhodamine B assay relative to control
[7] = system: SNB-19; assay: Growth inhibition of human SNB19 cells at 10^-5 M incubated for 48 hrs by sulforhodamine B assay relative to control
[8] = system: MOLT-4; assay: Growth inhibition of human MOLT4 cells at 10^-5 M incubated for 48 hrs by sulforhodamine B assay relative to control
[9] = system: MDA-MB-468; assay: Growth inhibition of human MDA-MB-468 cells at 10^-5 M incubated for 48 hrs by sulforhodamine B assay relative to control
[10] = system: K562; assay: Growth inhibition of human K562 cells at 10^-5 M incubated for 48 hrs by sulforhodamine B assay relative to control
[11] = system: A549; assay: Growth inhibition of human A549/ATCC cells at 10^-5 M incubated for 48 hrs by sulforhodamine B assay relative to control
[12] = system: COLO 205; assay: Growth inhibition of human COLO205 cells at 10^-5 M incubated for 48 hrs by sulforhodamine B assay relative to control
[13] = system: SR; assay: Growth inhibition of human SR cells at 10^-5 M incubated for 48 hrs by sulforhodamine B assay relative to control
[14] = system: UO-31; assay: Growth inhibition of human UO31 cells at 10^-5 M incubated for 48 hrs by sulforhodamine B assay relative to control
[15] = system: OVCAR-3; assay: Growth inhibition of human OVCAR3 cells at 10^-5 M incubated for 48 hrs by sulforhodamine B assay relative to control
[16] = system: Malme-3M; assay: Growth inhibition of human MALME-3M cells at 10^-5 M incubated for 48 hrs by sulforhodamine B assay relative to control
[17] = system: NCI-H522; assay: Growth inhibition of human NCI-H522 cells at 10^-5 M incubated for 48 hrs by sulforhodamine B assay relative to control
[18] = system: OVCAR-5; assay: Growth inhibition of human OVCAR5 cells at 10^-5 M incubated for 48 hrs by sulforhodamine B assay relative to control
[19] = system: NCI-H226; assay: Growth inhibition of human NCI-H226 cells at 10^-5 M incubated for 48 hrs by sulforhodamine B assay relative to control
[20] = system: Hs-578T; assay: Growth inhibition of human Hs 578T cells at 10^-5 M incubated for 48 hrs by sulforhodamine B assay relative to control
[21] = system: MDA-MB-435; assay: Growth inhibition of human MDA-MB-435 cells at 10^-5 M incubated for 48 hrs by sulforhodamine B assay relative to control
[22] = system: SK-OV-3; assay: Growth inhibition of human SKOV3 cells at 10^-5 M incubated for 48 hrs by sulforhodamine B assay relative to control
[23] = system: Candida albicans; assay: Antifungal activity against Candida albicans at 100 ug/ml by disc diffusion method; conditions: read-out: IZ
[24] = system: SF-295; assay: Growth inhibition of human SF295 cells at 10^-5 M incubated for 48 hrs by sulforhodamine B assay relative to control
[25] = system: MCF7; assay: Growth inhibition of human MCF7 cells at 10^-5 M incubated for 48 hrs by sulforhodamine B assay relative to control
[26] = system: OVCAR-8; assay: Growth inhibition of human OVCAR8 cells at 10^-5 M incubated for 48 hrs by sulforhodamine B assay relative to control
[27] = system: BT-549; assay: Growth inhibition of human BT549 cells at 10^-5 M incubated for 48 hrs by sulforhodamine B assay relative to control
[28] = system: OVCAR-4; assay: Growth inhibition of human OVCAR4 cells at 10^-5 M incubated for 48 hrs by sulforhodamine B assay relative to control
[29] = system: ACHN; assay: Growth inhibition of human ACHN cells at 10^-5 M incubated for 48 hrs by sulforhodamine B assay relative to control
[30] = system: SK-MEL-28; assay: Growth inhibition of human SK-MEL-28 cells at 10^-5 M incubated for 48 hrs by sulforhodamine B assay relative to control
[31] = system: KM12; assay: Growth inhibition of human KM12 cells at 10^-5 M incubated for 48 hrs by sulforhodamine B assay relative to control
[32] = system: UACC-257; assay: Growth inhibition of human UACC257 cells at 10^-5 M incubated for 48 hrs by sulforhodamine B assay relative to control
[33] = system: MDA-MB-231; assay: Growth inhibition of human MDA-MB-231/ATCC cells at 10^-5 M incubated for 48 hrs by sulforhodamine B assay relative to control
[34] = system: SW-620; assay: Growth inhibition of human SW620 cells at 10^-5 M incubated for 48 hrs by sulforhodamine B assay relative to control
[35] = system: NCI-H460; assay: Growth inhibition of human NCI-H460 cells at 10^-5 M incubated for 48 hrs by sulforhodamine B assay relative to control
[36] = system: HCT-116; assay: Growth inhibition of human HCT116 cells at 10^-5 M incubated for 48 hrs by sulforhodamine B assay relative to control
[37] = system: SF-268; assay: Growth inhibition of human SF268 cells at 10^-5 M incubated for 48 hrs by sulforhodamine B assay relative to control
[38] = system: NCI-H23; assay: Growth inhibition of human NCI-H23 cells at 10^-5 M incubated for 48 hrs by sulforhodamine B assay relative to control
[39] = system: UACC-62; assay: Growth inhibition of human UACC62 cells at 10^-5 M incubated for 48 hrs by sulforhodamine B assay relative to control
[40] = system: CAKI-1; assay: Growth inhibition of human Caki1 cells at 10^-5 M incubated for 48 hrs by sulforhodamine B assay relative to control
[41] = system: Aspergillus fumigatus; assay: Antifungal activity against Aspergillus fumigatus after 24 hrs by serial dilution method
[42] = system: Aspergillus fumigatus; assay: Antifungal activity against Aspergillus fumigatus at 100 ug/ml by disc diffusion method; conditions: read-out: IZ
[43] = system: HT-29; assay: Growth inhibition of human HT-29 cells at 10^-5 M incubated for 48 hrs by sulforhodamine B assay relative to control
[44] = system: RXF 393; assay: Growth inhibition of human RXF393 cells at 10^-5 M incubated for 48 hrs by sulforhodamine B assay relative to control

Fc1ccc2nc(Cl)c(Cn3nnc(CSc4ccccc4)n3)cc2c1
growth inhibition (GI) [1]: Active | growth inhibition (GI) [2]: Active | growth inhibition (GI) [3]: Active | growth inhibition (GI) [4]: Active | growth inhibition (GI) [5]: Active | growth inhibition (GI) [6]: Active | growth inhibition (GI) [7]: Active | growth inhibition (GI) [8]: Active | growth inhibition (GI) [9]: Active | growth inhibition (GI) [10]: Active | growth inhibition (GI) [11]: Active | growth inhibition (GI) [12]: Active | growth inhibition (GI) [13]: Active | growth inhibition (GI) [14]: Active | growth inhibition (GI) [15]: Active | growth inhibition (GI) [16]: Active | growth inhibition (GI) [17]: Active | growth inhibition (GI) [18]: Active | growth inhibition (GI) [19]: Active | growth inhibition (GI) [20]: Active | growth inhibition (GI) [21]: Active | growth inhibition (GI) [22]: Active | zone of inhibition at 100 µg/mL [23]: 18 mm | growth inhibition (GI) [24]: Active | growth inhibition (GI) [25]: Active | growth inhibition (GI) [26]: Active | growth inhibition (GI) [27]: Active | growth inhibition (GI) [28]: Active | growth inhibition (GI) [29]: Active | growth inhibition (GI) [30]: Active | growth inhibition (GI) [31]: Active | growth inhibition (GI) [32]: Active | growth inhibition (GI) [33]: Active | growth inhibition (GI) [34]: Active | growth inhibition (GI) [35]: Active | growth inhibition (GI) [36]: Active | growth inhibition (GI) [37]: Active | growth inhibition (GI) [38]: Active | growth inhibition (GI) [39]: Active | growth inhibition (GI) [40]: Active | MIC [41]: 2.5 µg/mL (≈ 6.48 µM) | zone of inhibition at 100 µg/mL [42]: 13 mm | growth inhibition (GI) [43]: Active | growth inhibition (GI) [44]: Active

Clc1nc2ccc(Br)cc2cc1Cn1nnnc1CSc1ccccc1
growth inhibition (GI) [1]: Active | growth inhibition (GI) [2]: Active | growth inhibition (GI) [3]: Active | growth inhibition (GI) [4]: Active | growth inhibition (GI) [5]: Active | growth inhibition (GI) [6]: Active | growth inhibition (GI) [7]: Active | growth inhibition (GI) [8]: Active | growth inhibition (GI) [9]: Active | growth inhibition (GI) [10]: Active | growth inhibition (GI) [11]: Active | growth inhibition (GI) [12]: Active | growth inhibition (GI) [13]: Active | growth inhibition (GI) [14]: Active | growth inhibition (GI) [15]: Active | growth inhibition (GI) [16]: Active | growth inhibition (GI) [17]: Active | growth inhibition (GI) [18]: Active | growth inhibition (GI) [19]: Active | growth inhibition (GI) [20]: Active | growth inhibition (GI) [21]: Active | growth inhibition (GI) [22]: Active | zone of inhibition at 100 µg/mL [23]: 12 mm | growth inhibition (GI) [24]: Active | growth inhibition (GI) [25]: Active | growth inhibition (GI) [26]: Active | growth inhibition (GI) [27]: Active | growth inhibition (GI) [28]: Active | growth inhibition (GI) [29]: Active | growth inhibition (GI) [30]: Active | growth inhibition (GI) [31]: Active | growth inhibition (GI) [32]: Active | growth inhibition (GI) [33]: Active | growth inhibition (GI) [34]: Active | growth inhibition (GI) [35]: Active | growth inhibition (GI) [36]: Active | growth inhibition (GI) [37]: Active | growth inhibition (GI) [38]: Active | growth inhibition (GI) [39]: Active | growth inhibition (GI) [40]: Active | MIC [41]: 5 µg/mL (≈ 11.2 µM) | zone of inhibition at 100 µg/mL [42]: 20 mm | growth inhibition (GI) [43]: Active | growth inhibition (GI) [44]: Active
